pIC50: −log10 of the molar value. Oligonucleotides are written 5' to 3', each unit as a sugar letter and its base; * is a phosphorothioate linkage, no mark a phosphodiester; rarer units and linkages stand in square brackets, end groups in braces. Plain capitals give the bases only. e = 2'-O-(2-methoxyethyl) (MOE); k = constrained ethyl (cEt); [5mC] = 5-methylcytosine; d = 2'-deoxy (DNA)
What was measured:
[1] = test system: AR mRNA; assay: Dose-dependent antisense inhibition of human AR in HuVEC cells (electroporation, qRT-PCR RTS3559, IC50); assay type: cell-based; settings: HuVEC
In short: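 HuVEC cells dosed with antisense oligonucleotides by electroporation and treated approximately 16 hours. AR mRNA quantified by real-time qPCR with primer probe set RTS3559 and normalised to total RNA by RIBOGREEN; IC50 from dose-response.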

[2] = test system: AR mRNA; assay: Antisense inhibition of human AR in HuVEC cells, single concentration (electroporation, qRT-PCR RTS3559); assay type: cell-based
In short: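 HuVEC cells electroporated with antisense oligonucleotides at a single concentration. AR mRNA quantified by qRT-PCR using human primer-probe set RTS3559 and normalised to total RNA content by RIBOGREEN.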

[3] = Table 34, electroporation, approximately 16 hours
[4] = Table 30, electroporation, approximately 16 hours
[5] = Table 31, electroporation, approximately 16 hours
[6] = Table 32, electroporation, approximately 16 hours
[7] = Table 19, 500 nM oligonucleotide, electroporation, approximately 24 hours, relative to untreated control
[8] = Table 36, electroporation, approximately 16 hours

583999 (kA*k[5mC]*k[5mC]*dA*dT*dG*d[5mC]*d[5mC]*dG*d[5mC]*d[5mC]*dA*dG*kG*kG*kT; antisense) [compound 583999]
percent inhibition of AR, 46.9 nM [1, 3]: 13% | percent inhibition of AR, 187.5 nM [1, 3]: 12% | percent inhibition of AR, 750.0 nM [1, 3]: 30% | percent inhibition of AR, 3000.0 nM [1, 3]: 64% | pIC50 [1, 3]: 5.82 | % inhibition ([2]; Table 22, 500 nM oligonucleotide, electroporation, approximately 24 hours, relative to untreated control): 29%

583736 (antisense kT*kG*kG*dA*dT*d[5mC]*dA*d[5mC]*dT*dT*d[5mC]*dG*d[5mC]*kG*k[5mC]*kA) [compound 583736]
percent inhibition of AR, 46.9 nM [1, 4]: 21% | percent inhibition of AR, 187.5 nM [1, 4]: 38% | percent inhibition of AR, 750.0 nM [1, 4]: 60% | percent inhibition of AR, 3000.0 nM [1, 4]: 63% | pIC50 [1, 4]: 6.29 | % inhibition ([2]; 500 nM ASO, ~24 h, Table 18): 47%

583719 (antisense kG*kT*kA*dG*dG*dT*d[5mC]*dT*dT*dG*dG*dA*d[5mC]*kG*kG*k[5mC]) [compound 583719]
percent inhibition of AR, 46.9 nM [1, 5]: 22% | percent inhibition of AR, 187.5 nM [1, 5]: 46% | percent inhibition of AR, 750.0 nM [1, 5]: 65% | percent inhibition of AR, 3000.0 nM [1, 5]: 72% | pIC50 [1, 5]: 6.49 | % inhibition ([2]; 500 nM ASO, ~24 h, Table 18): 36%

583693 (antisense k[5mC]*kT*kG*dT*dG*dA*dT*dG*dA*dT*dG*d[5mC]*dG*kG*kT*kA) [compound 583693]
percent inhibition of AR, 46.9 nM [1, 5]: 12% | percent inhibition of AR, 187.5 nM [1, 5]: 39% | percent inhibition of AR, 750.0 nM [1, 5]: 64% | percent inhibition of AR, 3000.0 nM [1, 5]: 80% | pIC50 [1, 5]: 6.42 | % inhibition ([2]; 500 nM ASO, ~24 h, Table 18): 36%

583749 (antisense kA*kG*kG*dT*dG*d[5mC]*dT*dG*d[5mC]*dG*d[5mC]*dT*d[5mC]*kG*k[5mC]*kG) [compound 583749]
percent inhibition of AR, 46.9 nM [1, 6]: 34% | percent inhibition of AR, 187.5 nM [1, 6]: 40% | percent inhibition of AR, 750.0 nM [1, 6]: 75% | percent inhibition of AR, 3000.0 nM [1, 6]: 87% | pIC50 [1, 6]: 6.77 | % inhibition [2, 7]: 36%

569229 (antisense eG*eT*kT*kG*kA*dT*dT*dT*dA*dA*dT*dG*kG*kT*kT*eG) [compound 569229]
percent inhibition of AR ([1]; 31.25 nM, ~16 h, Table 14): 16% | percent inhibition of AR ([1]; 62.5 nM, ~16 h, Table 14): 14% | percent inhibition of AR ([1]; 125.0 nM, ~16 h, Table 14): 36% | percent inhibition of AR ([1]; 500.0 nM, ~16 h, Table 14): 74% | percent inhibition of AR ([1]; 1000.0 nM, ~16 h, Table 14): 84% | pIC50 ([1]; ~16 h, Table 14): 6.66 | % inhibition ([2]; 1,000 nM ASO, ~24 h, Table 13): 57%

583687 (antisense kG*kG*kT*dA*dG*dT*d[5mC]*dG*d[5mC]*dT*dG*d[5mC]*dA*kG*k[5mC]*kT) [compound 583687]
percent inhibition of AR, 46.9 nM [1, 4]: 34% | percent inhibition of AR, 187.5 nM [1, 4]: 67% | percent inhibition of AR, 750.0 nM [1, 4]: 83% | percent inhibition of AR, 3000.0 nM [1, 4]: 81% | pIC50 [1, 4]: 7.10 | % inhibition ([2]; 500 nM ASO, ~24 h, Table 18): 41%

583799 (antisense kT*kG*k[5mC]*d[5mC]*dT*dT*d[5mC]*dG*dG*dA*dT*dA*d[5mC]*kT*kG*k[5mC]) [compound 583799]
percent inhibition of AR, 46.9 nM [1, 5]: 29% | percent inhibition of AR, 187.5 nM [1, 5]: 60% | percent inhibition of AR, 750.0 nM [1, 5]: 76% | percent inhibition of AR, 3000.0 nM [1, 5]: 85% | pIC50 [1, 5]: 6.85 | % inhibition [2, 7]: 65%

584361 (k[5mC]*kT*kT*d[5mC]*dA*dT*dT*dG*d[5mC]*dA*dG*dG*dT*k[5mC]*kT*kG; antisense) [compound 584361]
percent inhibition of AR, 46.9 nM [1, 8]: 0% | percent inhibition of AR, 187.5 nM [1, 8]: 18% | percent inhibition of AR, 750.0 nM [1, 8]: 71% | percent inhibition of AR, 3000.0 nM [1, 8]: 87% | pIC50 [1, 8]: 6.39 | % inhibition ([2]; 1,000 nM ASO, ~24 h, Table 26): 61%

Source: USRE48461E1, “Modulation of androgen receptor expression” (Ionis Pharmaceuticals, Inc., priority 2012, dated 2021)
